Measurements published in ChEMBL document CHEMBL4765227, “Hit to lead optimization of a series of N-[4-(1,3-benzothiazol-2-yl)phenyl]acetamides as monoacylglycerol lipase inhibitors with potential anticancer activity” (Eur J Med Chem, 2016).

Tests used:
Type in all cases: functional
Conditions in all cases: read-out: GI
HL-60(TB) = test: Growth inhibition of human HL-60(TB) cells at 10 uM incubated for 48 hrs by sulforhodamine B assay relative to control
MOLT-4 = test: Growth inhibition of human MOLT-4 cells at 10 uM incubated for 48 hrs by sulforhodamine B assay relative to control
RPMI-8226 = test: Growth inhibition of human RPMI-8226 cells at 10 uM incubated for 48 hrs by sulforhodamine B assay relative to control
SR = test: Growth inhibition of human SR cells at 10 uM incubated for 48 hrs by sulforhodamine B assay relative to control
A549 = test: Growth inhibition of human A549/ATCC cells at 10 uM incubated for 48 hrs by sulforhodamine B assay relative to control
HOP-62 = test: Growth inhibition of human HOP-62 cells at 10 uM incubated for 48 hrs by sulforhodamine B assay relative to control
HOP-92 = test: Growth inhibition of human HOP-92 cells at 10 uM incubated for 48 hrs by sulforhodamine B assay relative to control
NCI-H226 = test: Growth inhibition of human NCI-H226 cells at 10 uM incubated for 48 hrs by sulforhodamine B assay relative to control
NCI-H23 = test: Growth inhibition of human NCI-H23 cells at 10 uM incubated for 48 hrs by sulforhodamine B assay relative to control
NCI-H322M = test: Growth inhibition of human NCI-H322M cells at 10 uM incubated for 48 hrs by sulforhodamine B assay relative to control
NCI-H522 = test: Growth inhibition of human NCI-H522 cells at 10 uM incubated for 48 hrs by sulforhodamine B assay relative to control
COLO 205 = test: Growth inhibition of human COLO 205 cells at 10 uM incubated for 48 hrs by sulforhodamine B assay relative to control
HCC 2998 = test: Growth inhibition of human HCC 2998 cells at 10 uM incubated for 48 hrs by sulforhodamine B assay relative to control
HCT-116 = test: Growth inhibition of human HCT-116 cells at 10 uM incubated for 48 hrs by sulforhodamine B assay relative to control
HCT-15 = test: Growth inhibition of human HCT-15 cells at 10 uM incubated for 48 hrs by sulforhodamine B assay relative to control
HT-29 = test: Growth inhibition of human HT-29 cells at 10 uM incubated for 48 hrs by sulforhodamine B assay relative to control
KM12 = test: Growth inhibition of human KM12 cells at 10 uM incubated for 48 hrs by sulforhodamine B assay relative to control
SW-620 = test: Growth inhibition of human SW-620 cells at 10 uM incubated for 48 hrs by sulforhodamine B assay relative to control
SF-268 = test: Growth inhibition of human SF-268 cells at 10 uM incubated for 48 hrs by sulforhodamine B assay relative to control
SF-295 = test: Growth inhibition of human SF-295 cells at 10 uM incubated for 48 hrs by sulforhodamine B assay relative to control
SF-539 = test: Growth inhibition of human SF-539 cells at 10 uM incubated for 48 hrs by sulforhodamine B assay relative to control
SNB-75 = test: Growth inhibition of human SNB-75 cells at 10 uM incubated for 48 hrs by sulforhodamine B assay relative to control
U-251 = test: Growth inhibition of human U-251 cells at 10 uM incubated for 48 hrs by sulforhodamine B assay relative to control
LOX IMVI = test: Growth inhibition of human LOX IMVI cells at 10 uM incubated for 48 hrs by sulforhodamine B assay relative to control
Malme-3M = test: Growth inhibition of human Malme-3M cells at 10 uM incubated for 48 hrs by sulforhodamine B assay relative to control
M14 = test: Growth inhibition of human M14 cells at 10 uM incubated for 48 hrs by sulforhodamine B assay relative to control
UACC-257 = test: Growth inhibition of human UACC-257 cells at 10 uM incubated for 48 hrs by sulforhodamine B assay relative to control
OVCAR-3 = test: Growth inhibition of human OVCAR-3 cells at 10 uM incubated for 48 hrs by sulforhodamine B assay relative to control
OVCAR-4 = test: Growth inhibition of human OVCAR-4 cells at 10 uM incubated for 48 hrs by sulforhodamine B assay relative to control
OVCAR-5 = test: Growth inhibition of human OVCAR-5 cells at 10 uM incubated for 48 hrs by sulforhodamine B assay relative to control
OVCAR-8 = test: Growth inhibition of human OVCAR-8 cells at 10 uM incubated for 48 hrs by sulforhodamine B assay relative to control
NCI/ADR-RES = test: Growth inhibition of human NCI/ADR-RES cells at 10 uM incubated for 48 hrs by sulforhodamine B assay relative to control
786-0 = test: Growth inhibition of human 786-0 cells at 10 uM incubated for 48 hrs by sulforhodamine B assay relative to control
ACHN = test: Growth inhibition of human ACHN cells at 10 uM incubated for 48 hrs by sulforhodamine B assay relative to control
CAKI-1 = test: Growth inhibition of human CAKI-1 cells at 10 uM incubated for 48 hrs by sulforhodamine B assay relative to control
RXF 393 = test: Growth inhibition of human RXF 393 cells at 10 uM incubated for 48 hrs by sulforhodamine B assay relative to control
SN12C = test: Growth inhibition of human SN12C cells at 10 uM incubated for 48 hrs by sulforhodamine B assay relative to control
UO-31 = test: Growth inhibition of human UO-31 cells at 10 uM incubated for 48 hrs by sulforhodamine B assay relative to control
PC-3 = test: Growth inhibition of human PC-3 cells at 10 uM incubated for 48 hrs by sulforhodamine B assay relative to control
DU-145 = test: Growth inhibition of human DU-145 cells at 10 uM incubated for 48 hrs by sulforhodamine B assay relative to control
MCF7 = test: Growth inhibition of human MCF7 cells at 10 uM incubated for 48 hrs by sulforhodamine B assay relative to control
MDA-MB-231 = test: Growth inhibition of human MDA-MB-231 cells at 10 uM incubated for 48 hrs by sulforhodamine B assay relative to control
Hs-578T = test: Growth inhibition of human Hs-578T cells at 10 uM incubated for 48 hrs by sulforhodamine B assay relative to control
MDA-MB-468 = test: Growth inhibition of human MDA-MB-468 cells at 10 uM incubated for 48 hrs by sulforhodamine B assay relative to control

O=C(CNc1ccccc1)Nc1ccc(-c2nc3ccccc3s2)cc1
inhibition of growth at 10 µM (HL-60(TB)): 11%
inhibition of growth at 10 µM (MOLT-4): 84.5%
inhibition of growth at 10 µM (RPMI-8226): 12.5%
inhibition of growth at 10 µM (SR): 74.5%
inhibition of growth at 10 µM (A549): 9.72%
inhibition of growth at 10 µM (HOP-62): -12%
inhibition of growth at 10 µM (HOP-92): 3.37%
inhibition of growth at 10 µM (NCI-H226): 5.83%
inhibition of growth at 10 µM (NCI-H23): 11.9%
inhibition of growth at 10 µM (NCI-H322M): 12.9%
inhibition of growth at 10 µM (NCI-H522): 26%
inhibition of growth at 10 µM (COLO 205): -11.2%
inhibition of growth at 10 µM (HCC 2998): -16%
inhibition of growth at 10 µM (HCT-116): 29.7%
inhibition of growth at 10 µM (HCT-15): 29.6%
inhibition of growth at 10 µM (HT-29): 2%
inhibition of growth at 10 µM (KM12): 5.48%
inhibition of growth at 10 µM (SW-620): -6.41%
inhibition of growth at 10 µM (SF-268): 12.1%
inhibition of growth at 10 µM (SF-295): 7.06%
inhibition of growth at 10 µM (SF-539): 12%
inhibition of growth at 10 µM (SNB-75): 17.4%
inhibition of growth at 10 µM (U-251): 14.8%
inhibition of growth at 10 µM (LOX IMVI): 55.4%
inhibition of growth at 10 µM (Malme-3M): 4.9%
inhibition of growth at 10 µM (M14): 12.9%
inhibition of growth at 10 µM (UACC-257): -1.98%
inhibition of growth at 10 µM (OVCAR-3): 5.15%
inhibition of growth at 10 µM (OVCAR-4): 15.3%
inhibition of growth at 10 µM (OVCAR-5): -10.9%
inhibition of growth at 10 µM (OVCAR-8): 9.58%
inhibition of growth at 10 µM (NCI/ADR-RES): 1.75%
inhibition of growth at 10 µM (786-0): 15.4%
inhibition of growth at 10 µM (ACHN): -2.46%
inhibition of growth at 10 µM (CAKI-1): 1.16%
inhibition of growth at 10 µM (RXF 393): 5.43%
inhibition of growth at 10 µM (SN12C): 8.85%
inhibition of growth at 10 µM (UO-31): 30.2%
inhibition of growth at 10 µM (PC-3): 10.1%
inhibition of growth at 10 µM (DU-145): 3.91%
inhibition of growth at 10 µM (MCF7): 53.2%
inhibition of growth at 10 µM (MDA-MB-231): -0.13%
inhibition of growth at 10 µM (Hs-578T): -8.46%
inhibition of growth at 10 µM (MDA-MB-468): 29.5%

O=C(CNc1c(Cl)cccc1Cl)Nc1ccc(-c2nc3ccccc3s2)cc1
inhibition of growth at 10 µM (HL-60(TB)): 29.3%
inhibition of growth at 10 µM (MOLT-4): 94.4%
inhibition of growth at 10 µM (RPMI-8226): 40.2%
inhibition of growth at 10 µM (SR): 89.3%
inhibition of growth at 10 µM (A549): 14.3%
inhibition of growth at 10 µM (HOP-62): -18.3%
inhibition of growth at 10 µM (HOP-92): 5.78%
inhibition of growth at 10 µM (NCI-H226): 45.6%
inhibition of growth at 10 µM (NCI-H23): 59.1%
inhibition of growth at 10 µM (NCI-H322M): 5.42%
inhibition of growth at 10 µM (NCI-H522): 193%
inhibition of growth at 10 µM (COLO 205): 12.3%
inhibition of growth at 10 µM (HCC 2998): 64.4%
inhibition of growth at 10 µM (HCT-116): 70.1%
inhibition of growth at 10 µM (HCT-15): 97.6%
inhibition of growth at 10 µM (HT-29): 30.2%
inhibition of growth at 10 µM (KM12): 8.67%
inhibition of growth at 10 µM (SW-620): 64.7%
inhibition of growth at 10 µM (SF-268): 53.8%
inhibition of growth at 10 µM (SF-295): 2.62%
inhibition of growth at 10 µM (SF-539): 20.1%
inhibition of growth at 10 µM (SNB-75): 40.8%
inhibition of growth at 10 µM (U-251): 72.3%
inhibition of growth at 10 µM (LOX IMVI): 149%
inhibition of growth at 10 µM (Malme-3M): 150%
inhibition of growth at 10 µM (M14): 44.3%
inhibition of growth at 10 µM (UACC-257): 3.54%
inhibition of growth at 10 µM (OVCAR-3): 45.6%
inhibition of growth at 10 µM (OVCAR-4): 82.5%
inhibition of growth at 10 µM (OVCAR-5): -10.4%
inhibition of growth at 10 µM (OVCAR-8): 33.3%
inhibition of growth at 10 µM (NCI/ADR-RES): 36%
inhibition of growth at 10 µM (786-0): 75.9%
inhibition of growth at 10 µM (ACHN): 57.7%
inhibition of growth at 10 µM (CAKI-1): 71.2%
inhibition of growth at 10 µM (RXF 393): 13.4%
inhibition of growth at 10 µM (SN12C): 52%
inhibition of growth at 10 µM (UO-31): 26.3%
inhibition of growth at 10 µM (PC-3): 14.1%
inhibition of growth at 10 µM (DU-145): 14.3%
inhibition of growth at 10 µM (MCF7): 85.4%
inhibition of growth at 10 µM (MDA-MB-231): 43.1%
inhibition of growth at 10 µM (Hs-578T): 12.8%
inhibition of growth at 10 µM (MDA-MB-468): 107%
